US20090263488A1, “PRESSURISED METERED DOSE INHALERS CONTAINING SOLUTIONS OF BETA-2 AGONISTS” (Chiesi Farmaceutici S.p.A., priority 2002, published 2009)

Test: Stability study of TA 2005 HFA solution formulation in cans
Assay type: physicochemical
Conditions: HFA formulation able to deliver 4 μg per actuation; cans stored upright at 5° C.; after nine months
Protocol: A stability study on a formulation able to deliver 4 μg per actuation was initiated storing the cans upright at 5° C.

Q: With `COc1ccc(C[C@@H](C)NC[C@H](O)c2ccc(O)c3[nH]c(=O)ccc23)cc1` [TA 2005, 8-hydroxy-5-[(1R)-1-hydroxy-2-[[(1R)-2-(4-methoxyphenyl)-1-methylethyl]amino]ethyl]-2(1H)-quinolinone] as the molecule, how does the “TA 2005 assay” value read?
A: The value was “higher than 95%”.
